The nature of series [1]: solubility in water. The format is physicochemical.
Series [2] deals with T1, human H1 receptor (Homo sapiens, UniProt P35367).
T1 construct: expressed in transfected cells; host or cells: HEK-293 (membranes)
Briefly: standard H1 binding assay ([3H]-pyrilamine displacement, scintillation counting). The conditions noted are these: recombinant HEK-293 derived membranes, [3H]-pyrilamine 1 nM, 22°C, 60 minutes. As for the experimental part:
The antiH1 activity of Compound II was assayed using a standard H1 binding assay. The test was performed following a protocol based on Smit et al. (Brit. J. Pharmacol. 1996 117(6), 1071-1080): the binding was performed on recombinant HEK-293 cells expressing the human H1 receptor. The reference compound was [^3H]-pyrilamine at 1 nM. Recombinant HEK-293 derived membranes were incubated at 22°C for 60 minutes with [^3H]-pyrilamine in the presence of different concentrations of compound II. Measurements were carried out using scintillation counting.

For series [3] the following is noted: stated in background; cited from earlier work.

T1 sequence (P35367 whole entry): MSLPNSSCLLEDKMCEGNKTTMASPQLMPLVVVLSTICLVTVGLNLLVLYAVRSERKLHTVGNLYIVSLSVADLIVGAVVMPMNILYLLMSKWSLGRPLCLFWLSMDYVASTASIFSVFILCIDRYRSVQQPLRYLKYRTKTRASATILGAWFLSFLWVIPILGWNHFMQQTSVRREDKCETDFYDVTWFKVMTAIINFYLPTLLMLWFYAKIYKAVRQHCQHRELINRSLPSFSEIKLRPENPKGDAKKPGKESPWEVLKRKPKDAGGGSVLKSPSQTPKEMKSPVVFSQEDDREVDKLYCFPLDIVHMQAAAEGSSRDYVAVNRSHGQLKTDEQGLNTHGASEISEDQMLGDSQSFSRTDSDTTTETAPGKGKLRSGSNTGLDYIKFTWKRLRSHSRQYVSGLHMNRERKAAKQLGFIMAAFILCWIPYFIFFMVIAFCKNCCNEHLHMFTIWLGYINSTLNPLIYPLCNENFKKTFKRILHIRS

In turn, `Cc1cc(CN2CCC(=C3c4ccc(Cl)cc4CCc4cccnc43)CC2)c[n+](C(CC(=O)O)C(=O)[O-])c1` (stereo not drawn) [Compound II] displayed a solubility in series [1] above 50 mg/mL. For the same compound, in series [2], the IC50 came out at 370 nM. On to Rupatadine fumarate, for which the solubility in water in series [3] was 2.9 mg/mL.
